Experimental findings from US11214569B2, “Prodrugs of quinuclidine ring-containing muscarinic agonists and compositions and methods thereof” (Lenz Therapeutics, Inc., priority 2018, dated 2022) are described below.

The data set is described as follows: pH vs. solution stability of phosphono oxylmethyl prodrugs. The data set is classed as physicochemical.

For the substance phosphono oxylmethyl aceclidine, the Solubility entry runs as follows: (pH of solution 5.22) “Best”; (pH of solution 6.22) “Fair”; (pH of solution 7.22) “Poor”.

For phosphono oxymethyl talsaclidine, the Solubility result is listed as “Best” (pH of solution 5.45), “Fair” (pH of solution 6.45) and “Poor” (pH of solution 7.45).
